Experimental data published in ChEMBL document CHEMBL1201862, “PubChem BioAssay data set” (2004).
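96-well plates; 48 h exposure; 5 concentrations. Endpoints by linear interpolation between flanking doses. Not reached: highest tested concentration assigned. At the GI50, growth is halved.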 Activity calls are given as the source filed them. Cut-off read from the data, not from the text of the source: active = GI50 up to about 1.1 µM and inactive = higher.

Legend:
Assay in all cases: NCI anticancer screen, dose series, 48 h
TK-10 = test system: TK-10
KM12 = test system: KM12
SF-295 = test system: SF-295
SR = test system: SR
NCI-H522 = test system: NCI-H522
OVCAR-8 = test system: OVCAR-8
U-251 = test system: U-251
MCF7 = test system: MCF7
RPMI-8226 = test system: RPMI-8226
COLO 205 = test system: COLO 205
SN12C = test system: SN12C
HOP-62 = test system: HOP-62
SK-MEL-5 = test system: SK-MEL-5
M14 = test system: M14
Malme-3M = test system: Malme-3M
NCI-H226 = test system: NCI-H226
SF-539 = test system: SF-539
CAKI-1 = test system: CAKI-1
SW-620 = test system: SW-620
HL-60 = test system: HL-60

Measured: GI50

O=C(O)CCc1ccc2c(c1)CC1(Cc3ccccc3C1)C2
inactive: TK-10 > 100 µM | KM12 > 100 µM | SF-295 > 100 µM | SR 37.9 µM | NCI-H522 > 100 µM | OVCAR-8 > 100 µM | U-251 > 100 µM | MCF7 > 100 µM | RPMI-8226 > 100 µM | COLO 205 78 µM | SN12C > 100 µM | HOP-62 > 100 µM | SK-MEL-5 > 100 µM | M14 > 100 µM | Malme-3M > 100 µM | NCI-H226 79.8 µM | SF-539 > 100 µM

COc1cc2c(cc1O)C(c1cc(O)c(O)c(OC)c1)C(O)(C(=O)O)C(CO)C2O (stereo not given)
inactive: TK-10 > 100 µM | KM12 > 100 µM | SF-295 > 100 µM | SR 66.4 µM | NCI-H522 > 100 µM | OVCAR-8 > 100 µM | U-251 > 100 µM | CAKI-1 > 100 µM | MCF7 20.9 µM | RPMI-8226 > 100 µM | COLO 205 > 100 µM | SN12C 16.4 µM | HOP-62 > 100 µM | SK-MEL-5 > 100 µM | SW-620 26 µM | M14 > 100 µM | Malme-3M > 100 µM | NCI-H226 > 100 µM | SF-539 > 100 µM

COc1cccc(N2C(=O)/C(=C\c3ccccc3)SC2c2cc(OC)c(OC)c(OC)c2)c1 (stereo not given)
inactive: TK-10 > 100 µM | KM12 36.5 µM | HL-60 36 µM | SF-295 35.5 µM | SR 26.3 µM | NCI-H522 22.2 µM | OVCAR-8 44.1 µM | U-251 33.3 µM | CAKI-1 70 µM | MCF7 42.4 µM | RPMI-8226 32.1 µM | COLO 205 39.7 µM | SN12C 52 µM | HOP-62 37.6 µM | SK-MEL-5 42.9 µM | M14 40.3 µM | NCI-H226 > 100 µM

Nn1c(SCC(=O)O)nc2ccccc2c1=O
inactive: TK-10 > 100 µM | KM12 > 100 µM | SF-295 > 100 µM | SR > 100 µM | NCI-H522 > 100 µM | OVCAR-8 > 100 µM | U-251 > 100 µM | CAKI-1 > 100 µM | MCF7 > 100 µM | RPMI-8226 > 100 µM | COLO 205 > 100 µM | SN12C > 100 µM | SK-MEL-5 > 100 µM | SW-620 > 100 µM | M14 > 100 µM | Malme-3M > 100 µM | NCI-H226 > 100 µM | SF-539 > 100 µM

CCOC(=O)[C@@H]1ON2O[C@H](OC3CCCC3(c3ccccc3)c3ccccc3)C[C@H]3OC(=O)[C@@H]1C32 (stereo not given in full)
inactive: TK-10 81.3 µM | KM12 27.9 µM | HL-60 22.2 µM | SF-295 > 100 µM | SR 33.7 µM | NCI-H522 36.4 µM | OVCAR-8 35.3 µM | U-251 52.4 µM | CAKI-1 22.9 µM | MCF7 34.4 µM | RPMI-8226 35.6 µM | COLO 205 40.6 µM | SN12C 97.5 µM | HOP-62 > 100 µM | SK-MEL-5 75.9 µM | SW-620 28.2 µM | M14 45.3 µM | NCI-H226 36.4 µM | SF-539 65 µM

COC(NC(=O)Nc1ccccc1C)(C(F)(F)F)C(F)(F)F
inactive: TK-10 > 100 µM | KM12 > 100 µM | HL-60 > 100 µM | SF-295 > 100 µM | SR > 100 µM | NCI-H522 30.4 µM | OVCAR-8 > 100 µM | U-251 34.5 µM | MCF7 > 100 µM | RPMI-8226 > 100 µM | COLO 205 > 100 µM | SN12C > 100 µM | HOP-62 > 100 µM | SK-MEL-5 > 100 µM | SW-620 > 100 µM | M14 > 100 µM | NCI-H226 > 100 µM | SF-539 > 100 µM

COC(CN(C)C(=O)C(C)NC(=O)c1ccccc1)OC (stereo not given)
inactive: TK-10 > 100 µM | KM12 > 100 µM | SF-295 > 100 µM | SR > 100 µM | NCI-H522 > 100 µM | OVCAR-8 > 100 µM | U-251 > 100 µM | CAKI-1 > 100 µM | MCF7 > 100 µM | RPMI-8226 > 100 µM | COLO 205 > 100 µM | SN12C > 100 µM | SK-MEL-5 > 100 µM | SW-620 > 100 µM | M14 > 100 µM | Malme-3M > 100 µM | NCI-H226 > 100 µM | SF-539 > 100 µM

CC(C)(S)C(N)C(=O)O (stereo not drawn) [DL-PENICILLAMINE]
inactive: TK-10 > 100 µM | KM12 > 100 µM | SF-295 > 100 µM | SR > 100 µM | NCI-H522 > 100 µM | OVCAR-8 > 100 µM | U-251 > 100 µM | CAKI-1 > 100 µM | MCF7 > 100 µM | RPMI-8226 > 100 µM | COLO 205 > 100 µM | SN12C > 100 µM | HOP-62 > 100 µM | SK-MEL-5 > 100 µM | SW-620 > 100 µM | M14 > 100 µM | Malme-3M > 100 µM | NCI-H226 > 100 µM | SF-539 > 100 µM
